Calls of active or inactive are those of the source. No cut-off for these calls is given here.
Tests used:
[1] = biological target: T1, Fatty-acid amide hydrolase 1 (Mus musculus, UniProt O08914); test: Inhibition of FAAH in mouse brain homogenate using [3Hethanolamine]AEA as substrate incubated for 20 mins prior to substrate addition measured after 15 mins by beta counting analysis; assay type: tissue-based
T1 sequence (O08914 whole entry): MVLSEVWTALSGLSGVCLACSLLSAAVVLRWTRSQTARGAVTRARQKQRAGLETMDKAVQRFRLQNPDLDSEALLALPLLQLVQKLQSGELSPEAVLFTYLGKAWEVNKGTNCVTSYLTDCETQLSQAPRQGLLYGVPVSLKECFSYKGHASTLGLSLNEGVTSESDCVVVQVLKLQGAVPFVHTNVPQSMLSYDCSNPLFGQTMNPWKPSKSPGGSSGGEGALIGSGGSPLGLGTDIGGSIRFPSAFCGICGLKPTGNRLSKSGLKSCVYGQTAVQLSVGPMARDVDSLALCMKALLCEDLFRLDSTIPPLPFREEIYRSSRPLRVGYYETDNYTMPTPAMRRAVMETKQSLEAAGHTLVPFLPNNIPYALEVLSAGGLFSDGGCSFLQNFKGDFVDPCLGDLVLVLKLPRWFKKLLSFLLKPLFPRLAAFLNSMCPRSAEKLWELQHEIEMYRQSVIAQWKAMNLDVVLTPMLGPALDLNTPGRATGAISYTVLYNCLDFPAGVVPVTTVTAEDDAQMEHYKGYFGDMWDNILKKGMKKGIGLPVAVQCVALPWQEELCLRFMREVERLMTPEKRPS

[2] = biological target: Fatty-acid amide hydrolase 1 (Mus musculus) (UniProt O08914); test: Reversible noncompetitive inhibition of FAAH in mouse brain homogenate using [3Hethanolamine]AEA as substrate incubated for 20 mins prior to dialysis for 18 hrs followed by substrate addition measured after 15 mins; assay type: tissue-based
[3] = biological target: T2, Fatty-acid amide hydrolase 1 (Homo sapiens, UniProt O00519); test: Inhibition of human FAAH using [3Hethanolamine]AEA as substrate incubated for 20 mins prior to substrate addition measured after 15 mins by beta counting analysis
T2 sequence (O00519 whole entry): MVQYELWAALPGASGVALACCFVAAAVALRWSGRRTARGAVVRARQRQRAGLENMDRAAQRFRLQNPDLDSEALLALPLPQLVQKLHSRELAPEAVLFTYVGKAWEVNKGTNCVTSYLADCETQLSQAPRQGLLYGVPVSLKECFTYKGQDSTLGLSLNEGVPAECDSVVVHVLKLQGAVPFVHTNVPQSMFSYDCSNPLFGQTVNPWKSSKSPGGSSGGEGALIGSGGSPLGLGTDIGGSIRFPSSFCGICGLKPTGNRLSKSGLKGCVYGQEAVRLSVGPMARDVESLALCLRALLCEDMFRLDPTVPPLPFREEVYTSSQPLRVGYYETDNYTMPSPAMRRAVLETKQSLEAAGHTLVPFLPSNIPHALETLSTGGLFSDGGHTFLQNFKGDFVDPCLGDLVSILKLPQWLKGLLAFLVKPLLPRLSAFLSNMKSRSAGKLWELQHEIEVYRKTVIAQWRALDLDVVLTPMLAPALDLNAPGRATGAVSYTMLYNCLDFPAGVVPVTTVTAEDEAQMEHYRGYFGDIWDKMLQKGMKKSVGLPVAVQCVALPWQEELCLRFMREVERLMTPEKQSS

| SMILES | Ki [1] [µM] | inhibition [2] | IC50 [3] [µM] |
| --- | --- | --- | --- |
| NC(=O)c1ccn(-c2cccc(N3CCN(CCCCCCc4ccccc4)CC3)c2)c1 | 0.01 | Active | > 1 |
| NC(=O)c1ccn(-c2cccc(C(=O)N3CCN(CCCCCCc4ccccc4)CC3)c2)c1 | > 0.5 |  |  |
| CN1CCN(c2cccc(OC(=O)NCCCCCCc3ccccc3)c2)CC1 | 0.24 |  |  |
| NC(=O)c1ccn(-c2cccc(N3CCN(C(=O)NCCCCCCc4ccccc4)CC3)c2)c1 | > 0.5 |  |  |

Other lines, results leading:

| Ki [1] [µM] | inhibition [2] | IC50 [3] [µM] | SMILES |
| --- | --- | --- | --- |
| 0.263 |  |  | O=C(NCCCCCCc1ccccc1)N1CCN(c2cccc(-n3cccc3)c2)CC1 |
| > 0.5 |  |  | C/C(=N\OC(=O)N1CCCCC1)c1cccc(N2CCN(C)CC2)c1 |

— ChEMBL document CHEMBL2321687, “Identification of a novel arylpiperazine scaffold for fatty acid amide hydrolase inhibition with improved drug disposition properties” (Bioorg Med Chem Lett, 2013)
